Drawing on PubChem BioAssay AID602264 (The Scripps Research Institute Molecular Screening Center, 2012), this text covers EC50 for 79 compounds.

Several values for one entry are separate records, joined by “and”; a condition that tells them apart may be missing. Identical values can stand only once. Activity calls are given as the source filed them. How the calls were made is not given here.

The term EC50 denotes the concentration needed to bring the measured effect to its halfway point.

For the test, the target named is Mu-type opioid receptor (Homo sapiens) + Delta-type opioid receptor (Homo sapiens) (UniProt P35372+P41143). Nature of the test: agonists of MOR-DOR heterodimerization, dose response, counter-screen for MC4R biased agonist project, cell-based, luminescence (AID 602264). Conditions: cell-based OPRM1-OPRD1 heterodimerization.
Mu-type opioid receptor (Homo sapiens) + Delta-type opioid receptor (Homo sapiens), sequence (P35372 whole entry, looked up): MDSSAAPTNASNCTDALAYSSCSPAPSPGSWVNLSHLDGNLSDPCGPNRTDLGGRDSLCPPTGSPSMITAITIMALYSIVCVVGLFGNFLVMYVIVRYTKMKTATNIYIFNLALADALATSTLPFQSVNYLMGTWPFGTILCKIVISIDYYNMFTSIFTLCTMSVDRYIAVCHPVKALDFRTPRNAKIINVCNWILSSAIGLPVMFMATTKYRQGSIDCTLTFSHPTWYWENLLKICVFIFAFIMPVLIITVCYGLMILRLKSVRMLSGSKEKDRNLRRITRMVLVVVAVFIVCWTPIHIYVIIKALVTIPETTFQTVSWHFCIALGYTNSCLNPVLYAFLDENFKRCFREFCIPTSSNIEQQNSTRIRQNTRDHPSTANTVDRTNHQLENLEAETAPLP
Mu-type opioid receptor (Homo sapiens) + Delta-type opioid receptor (Homo sapiens), sequence (P41143 whole entry, looked up): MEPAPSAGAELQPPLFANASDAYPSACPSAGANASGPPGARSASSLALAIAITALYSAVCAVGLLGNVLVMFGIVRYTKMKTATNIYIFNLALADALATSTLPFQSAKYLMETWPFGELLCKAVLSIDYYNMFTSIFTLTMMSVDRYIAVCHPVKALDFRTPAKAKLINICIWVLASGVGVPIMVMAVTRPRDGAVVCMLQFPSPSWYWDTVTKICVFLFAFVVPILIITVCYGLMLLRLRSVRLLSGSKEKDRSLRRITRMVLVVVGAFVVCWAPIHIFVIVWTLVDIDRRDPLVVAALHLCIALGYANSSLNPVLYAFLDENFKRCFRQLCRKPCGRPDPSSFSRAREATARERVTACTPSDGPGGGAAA
Take `Clc1ccc(/C=N/NC2=Nc3cccc4cccc2c34)cc1`: the EC50 was > 92.4 µM (inactive).

Consider `NC(Cc1ccc(C(F)(F)F)cc1)c1csc(NC(=O)Nc2ccccc2)n1` (centres undefined), for which the EC50 was > 92.5 µM (inactive).

`CN(C)c1ccccc1-c1cc(NC=O)c2ncc(-c3cccc(C(F)(F)F)c3)n2c1`: the EC50 was > 64.6 µM (inactive).

`CCOc1ccc(Cn2c3ccc(OC)cc3c3nc4ccccc4nc32)cc1OC`: the EC50 was > 64.6 µM (inactive).

As to `COc1ccc(NC(=O)COC(=O)c2c(NC(C)=O)sc(C)c2C)cc1`, the EC50 was > 92.5 µM (inactive).

As to `Cc1ccc(O)c(C(=O)/C=C/c2ccc3c(c2)OCCO3)c1`, the EC50 was > 92.5 µM (inactive).

Consider `CCCCCCCCCCOC(=O)Cn1c(COc2ccc(OC)cc2)[n+](C)c2ccccc21`, for which the EC50 was > 92.5 µM (inactive).

`Cc1cccc(C)c1-n1cccc1/C=C1\SC(=S)N(c2cccc(C(=O)O)c2)C1=O`: the EC50 was > 92.5 µM (inactive).

As for `CN(C)CCCN(C(=O)CCc1ccccc1)c1nc2ccc(Cl)cc2s1`, the EC50 is > 92.4 µM (inactive).

As to `CC(=O)Nc1cc(-c2ccc(S(C)(=O)=O)cc2)cn2c(-c3ccc(F)c(Cl)c3)cnc12`, the EC50 was > 64.6 µM (inactive).

For the compound `Cc1cccnc1C(c1ccc(F)cc1)N(C)C(=O)C1CCN(CCOc2ccc(Cl)cc2Cl)CC1` (centres undefined), the EC50 was > 92.5 µM (inactive).

With `Cc1cc(NC(=O)c2cncc(Br)c2)ccc1NC(=O)c1cc2ccccc2o1`, the EC50 is > 64.6 µM (inactive).

`COc1ccc(-c2cc(NC=O)c3ncc(-c4cccc(C(F)(F)F)c4)n3c2)cc1OC`: the EC50 was > 64.6 µM (inactive).

As to `CC(=O)Nc1cc(-c2ccc(CO)cc2)cn2c(-c3cccc(C(F)(F)F)c3)cnc12`, the EC50 was > 64.6 µM (inactive).

`COc1ccccc1-c1cc(NC=O)c2ncc(-c3ccc(F)cc3)n2c1`: the EC50 was > 92.4 µM (inactive).

For `Cc1ccc2sc(N(CCCN(C)C)C(=O)CN3C(=O)c4ccccc4C3=O)nc2c1C`, the EC50 is > 64.6 µM (inactive).

With `Cc1ccc(NC(=S)NC(=O)c2ccc(-c3ccc(Cl)cc3)o2)c(O)c1`, the EC50 is > 64.6 µM (inactive).

With `OC(CNCCc1ccc(C(F)(F)F)cc1)COc1cccc2ccccc12` (centres undefined), the EC50 is > 92.5 µM (inactive).

As to `CCN1CCC(O)(/C=C/c2ccc(C(C)C)cc2)C(C(=O)/C=C/c2ccc(C(C)C)cc2)C1` (centres undefined), the EC50 is > 64.6 µM (inactive).

As for `O=C1OC(c2ccccc2)(c2cc(Br)ccc2O)c2ccccc21` (centres undefined), the EC50 entry is “inactive”.

As to `Cc1ccc(NC(=O)c2ncn(CCCN3CCN(Cc4cccc5ccccc45)CC3)n2)cc1C`, the EC50 is > 92.5 µM (inactive).

For `O=C(Nc1cc(-c2nc3ccccc3s2)ccc1Cl)c1ccc2c(c1)OCO2`, the EC50 was > 92.4 µM (inactive).

Turning to `CCC(C)c1ccc(NC(=S)NC2CCN(Cc3ccccc3)CC2)cc1` (centres undefined), the EC50 is > 64.6 µM (inactive).

`CC(O)CC(=O)OC[C@]12CC[C@H]3[C@@](C)(CC[C@H]4C(C)(C)CCC[C@]34C)[C@@H]1CC(C1=CC(=O)OC1O)O2` (some centres undefined): the EC50 is > 64.6 µM (inactive).

For `CCCOc1ccc(C(=O)C(CCC(CNCC)C(=O)c2ccc(OCCC)cc2)CNCC)cc1` (centres undefined), the EC50 was > 92.5 µM (inactive).

Take `CC(/C=C/C=C/c1ccccc1)=N/NC(=O)CNc1ccccc1C`: the EC50 is > 64.6 µM (inactive).

With `CCCCCCCNC(=O)C1(CC2CC(c3ccc(Cl)cc3)=NO2)CCNCC1` (centres undefined), the EC50 was > 64.6 µM (inactive).

Regarding `O=C(COc1ccc2c(c1)OCO2)Nc1ccc2c(c1)oc1ccccc12`, the EC50 was > 92.5 µM (inactive).

Consider `O=C(CCN1C(=O)/C(=C/C=C/c2ccccc2)SC1=S)Nc1cccnc1`, for which the EC50 is > 92.5 µM (inactive).

Take `CC(=O)Nc1cc(-c2cccc(NS(C)(=O)=O)c2)cn2c(-c3ccccc3)cnc12`: the EC50 was > 92.5 µM (inactive).

`NC(c1csc(NC(=O)Nc2cccc(Cl)c2)n1)C1CCCCC1` (centres undefined): the EC50 was > 92.5 µM (inactive).

For the compound `COc1ccc(-c2cnc3c(NC(C)=O)cc(-c4ccccc4OC)cn23)cc1OC`, the EC50 is > 64.6 µM (inactive).

`CCc1ccc(C2CC(c3ccc(F)cc3)Nc3nc(N)nn32)cc1` (centres undefined): the EC50 is > 92.5 µM (inactive).

As for `NC(Cc1ccc(C(F)(F)F)cc1)c1csc(NC(=O)Nc2ccccc2Cl)n1` (centres undefined), the EC50 was > 64.6 µM (inactive).

For `CCOC(=O)Cc1csc(NC(=O)c2sc3nc4cc(C)ccc4cc3c2N)n1`, the EC50 is > 92.4 µM (inactive).

With `CC12CCC3C(CC=C4CC(O)CCC43C)C1C/C(=C\c1ccccc1F)C2=O` (centres undefined), the EC50 result was “inactive”.

With `COc1ccc(-c2cc(NC(C)=O)c3ncc(-c4cccc(C(F)(F)F)c4)n3c2)c(OC)c1`, the EC50 was > 92.5 µM (inactive).

For `COc1ccc2sc(-c3ccc(S(C)(=O)=O)cc3)c(C#Cc3cncn3C)c2c1`, the EC50 is > 92.5 µM (inactive).

Regarding `Cc1cc(C)nc(Nc2nc(C(N)Cc3ccc(Cl)cc3)cs2)n1` (centres undefined), the EC50 was > 92.5 µM (inactive).

Regarding `CC(=O)Nc1cc(-c2ccccc2F)cn2c(-c3cccc(C(F)(F)F)c3)cnc12`, the EC50 is > 92.5 µM (inactive).

Turning to `COc1cccc(-c2cnc3c(NC=O)cc(-c4cccc(C(=O)N(C)C)c4)cn23)c1`, the EC50 is > 64.6 µM (inactive).

Consider `COc1ccc(-c2sc3ccccc3c2-c2ccc(OCCN(C)C)cc2)cc1`, for which the EC50 was > 92.5 µM (inactive).

`CC(=O)Nc1cc(-c2ccccc2N(C)C)cn2c(-c3ccc(F)c(Cl)c3)cnc12`: the EC50 is > 64.6 µM (inactive).

As to `Cc1ccc(CN2CCC(c3cc(-c4ccc(Cl)cc4)n[nH]3)CC2)cc1`, the EC50 was > 92.5 µM (inactive).

For the compound `CCCCNc1c(-c2cccc(-c3cc(C(C)=O)cs3)c2)nc2ccc(C)cn12`, the EC50 was > 64.6 µM (inactive).

Regarding `COc1ccc(COc2ccsc2C(=O)Nc2ccc(Cl)c(Cl)c2)cc1`, the EC50 was > 64.6 µM (inactive).

As to `Cc1cc(C)cc(OCC(O)CN2CCC(CN3C(=O)c4cccc5cccc(c45)C3=O)CC2)c1` (centres undefined), the EC50 is > 64.6 µM (inactive).

Take `CN(C)CCCNC(=O)c1ccc(-c2nc(-c3ccc(Cl)cc3)cs2)cc1`: the EC50 was > 64.6 µM (inactive).

As for `COc1ccccc1-c1cc(NC(C)=O)c2ncc(-c3ccccc3)n2c1`, the EC50 is > 92.4 µM (inactive).

`O=C(Nc1cccc(NC(=S)NC(=O)c2cccs2)c1)c1ccccc1`: the EC50 is > 92.5 µM (inactive).

In the case of `CCN1CCN(Cc2ccc(NC(=O)c3ccc(C)c(NC(=O)C(=O)c4c[nH]c5ccccc45)c3)cc2C(F)(F)F)CC1`, the EC50 was > 10.3 µM (inactive) and > 92.5 µM (inactive).

Take `NC(c1ccccc1)c1csc(NC(=O)Nc2ccccc2Oc2ccccc2)n1` (centres undefined): the EC50 was > 92.5 µM (inactive).

As for `COc1cccc2sc(N(CCCN(C)C)C(=O)C(c3ccccc3)c3ccccc3)nc12`, the EC50 was > 64.6 µM (inactive).

With `Cc1ccc2sc(N(CCCN(C)C)C(=O)c3ccc(Br)s3)nc2c1C`, the EC50 was > 64.6 µM (inactive).

Consider `CC1=NNC(=O)/C1=C\c1cn(-c2ccccc2)nc1-c1ccc(Cl)cc1`, for which the EC50 is > 92.5 µM (inactive).

For the compound `CC(=O)Nc1cc(-c2ccc(N(C)C)cc2)cn2c(-c3ccc(F)c(Cl)c3)cnc12`, the EC50 is > 92.5 µM (inactive).

As to `Cc1ccc(O)c(C(=O)/C=C/c2ccc3c(c2)OCCCO3)c1`, the EC50 is > 64.6 µM (inactive).

On to `Cc1c(CCOC(=O)CC23CC4CC(CC(C)(C4)C2)C3)sc[n+]1CC(=O)c1ccccc1`, for which the EC50 was > 92.5 µM (inactive).

With `COc1cc(O)c(CC=C(C)C)c(O)c1C(=O)CCc1ccc(O)cc1`, the EC50 was > 64.6 µM (inactive).

In the case of `COc1cccc(-c2sc3ccccc3c2-c2ccc(OCCN(C)C)cc2)c1`, the EC50 was > 64.6 µM (inactive).

As to `CCOc1ccc(NC(=S)NC(=O)/C=C/c2ccc(C)cc2)c([N+](=O)[O-])c1`, the EC50 is > 64.6 µM (inactive).

For `COc1ccc(-c2cc(NC(C)=O)c3ncc(-c4ccccc4)n3c2)c(OC)c1`, the EC50 was > 92.4 µM (inactive).

For `CCc1ccc(CCC(=O)Nc2ncc(Cc3ccccc3Cl)s2)o1`, the EC50 is > 92.5 µM (inactive).

Take `COc1ccccc1NC(=O)Nc1nc(C(N)Cc2ccc(Cl)cc2)cs1` (centres undefined): the EC50 is > 92.5 µM (inactive).

`c1ccc(-c2sc3ccccc3c2-c2ccc(OCCN3CCCC3)cc2)cc1`: the EC50 is > 92.5 µM (inactive).

For the compound `CCOc1cc(NC(=O)c2cccs2)c(OCC)cc1NC(=O)c1ccco1`, the EC50 is > 92.3 µM (inactive).

As to `CN(C)CCNC(=O)c1cccc(-c2cc(NC=O)c3ncc(-c4cccc(C(F)(F)F)c4)n3c2)c1`, the EC50 was > 92.5 µM (inactive).

Take `COc1ccc2c(c1)CCc1c(C(=O)Nc3ccn(Cc4ccc(C)cc4)n3)noc1-2`: the EC50 is > 92.4 µM (inactive).

As for `Clc1ccc(C2=Nn3c(nnc3-c3cc(-c4ccccc4)n[nH]3)SC2)cc1`, the EC50 entry was “inactive”.

As to `Cc1ccccc1-c1nc(-c2ccc(NC(=O)c3ccc4c(c3)OCO4)cc2)no1`, the EC50 was > 92.4 µM (inactive).

In the case of `Cc1ccc(C(=O)NCCNc2nc3cc(C)c(C)cc3cc2C)cc1`, the EC50 was > 64.6 µM (inactive).

Turning to `O=C(c1ccc(COc2ccc(Br)cc2)o1)N1N=C(C(F)F)CC1(O)C(F)F` (centres undefined), the EC50 entry is “inactive”.

With `Clc1ccc(Cn2ncc3c(N4CCN(c5ccccc5)CC4)ncnc32)cc1`, the EC50 is > 92.3 µM (inactive).

For `N#Cc1sc2nc(-c3cccs3)cc(-c3ccc(F)cc3)c2c1N`, the EC50 was > 92.5 µM (inactive).

With `O=C(Nc1nc2ccc(SC(F)F)cc2s1)c1ccc(NS(=O)(=O)c2ccc(F)c(F)c2)cc1`, the EC50 is > 64.6 µM (inactive).

Take `COc1cccc(-c2cnc3c(NC(C)=O)cc(-c4ccc(C(=O)N5CCOCC5)cc4)cn23)c1`: the EC50 is > 64.6 µM (inactive).

As to `CCN1/C(=C/c2ccc3cc(C)ccc3[n+]2CC)Sc2cc(C)c(C)cc21`, the EC50 is > 10.3 µM (inactive).

For `NC(N)=Nc1nc(-c2ccccc2)c2cc(Cl)ccc2n1`, the EC50 is > 10.3 µM (inactive).

For the compound `COc1cc(NC(=O)Nc2nc(C(N)Cc3ccc(C(F)(F)F)cc3)cs2)cc(OC)c1OC` (centres undefined), the EC50 is > 10.3 µM (inactive).
